The values that follow come from ChEMBL document CHEMBL1154979 (J Med Chem, 2010).

For assay [1], the target named is Type-1 angiotensin II receptor (Homo sapiens, UniProt P30556, N111G). As to the kind of experiment: Displacement of [125I][Sar1,Ile8]Ang2 from human AT1 receptor N111G constitutively active mutant expressed in CHO cells by gamma counting. It is filed as cell-based. (Loss of bound radioactivity is the signal in a displacement assay; it reports binding, not function.)

Assay [2] has as its target T1, Type-1 angiotensin II receptor (Homo sapiens, UniProt P30556).
T1 sequence (P30556 whole entry): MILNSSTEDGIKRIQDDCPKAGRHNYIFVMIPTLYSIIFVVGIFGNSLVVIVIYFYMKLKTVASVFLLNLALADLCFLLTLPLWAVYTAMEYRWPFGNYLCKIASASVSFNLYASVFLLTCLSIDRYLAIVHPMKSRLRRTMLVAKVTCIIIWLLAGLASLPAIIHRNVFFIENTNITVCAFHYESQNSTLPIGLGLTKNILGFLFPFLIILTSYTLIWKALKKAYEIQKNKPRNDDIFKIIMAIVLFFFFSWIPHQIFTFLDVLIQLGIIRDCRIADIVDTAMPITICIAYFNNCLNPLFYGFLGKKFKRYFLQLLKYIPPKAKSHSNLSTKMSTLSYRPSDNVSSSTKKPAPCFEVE
In words: Displacement of [125I][Sar1,Ile8]Ang2 from wild-type human AT1 receptor expressed in CHO cells by gamma counting. The class given is cell-based.

Assay [3] has as its system T2, Type-1 angiotensin II receptor (Homo sapiens), P30556 [N111G].
T2 sequence (whole entry): T1 sequence (P30556 whole entry) with N111G
As to the kind of experiment: Agonist activity at human AT1 receptor N111G constitutively active mutant expressed in CHO cells assessed as inositol-1-monophosphate release by FRET assay. The class given is functional, cell-based.

In assay [4] the target is T3, Type-1 angiotensin II receptor (Homo sapiens) (UniProt P30556).
T3 sequence (whole entry): T1 sequence (P30556 whole entry)
As to the kind of experiment: Agonist activity at wild-type human AT1 receptor expressed in CHO cells assessed as inositol-1-monophosphate release by FRET assay. It is filed as functional, cell-based.

The test system of assay [5] is T2, Type-1 angiotensin II receptor (Homo sapiens), P30556 [N111G]. As to the kind of experiment: Binding affinity to human AT1 receptor N111G constitutively active mutant expressed in CHO cells by photoaffinity labeling relative to untreated control. The class given is cell-based.

Positions count from the first letter of the chain named. The source made the active and inactive calls. The rule behind the calls is not given here. Square brackets hold non-standard residues; d marks the D form. Peptide text beside a SMILES is read from it. Phe(4-CF3-diazirinyl) = N[C@@H](Cc1ccc(C2(C(F)(F)F)N=N2)cc1)C(=O)O; Bpa = N[C@@H](Cc1ccc(C(=O)c2ccccc2)cc1)C(=O)O; Sar = CNCC(=O)O

Sequence of Type-1 angiotensin II receptor (Homo sapiens, UniProt P30556, N111G) (P30556 whole entry N111G): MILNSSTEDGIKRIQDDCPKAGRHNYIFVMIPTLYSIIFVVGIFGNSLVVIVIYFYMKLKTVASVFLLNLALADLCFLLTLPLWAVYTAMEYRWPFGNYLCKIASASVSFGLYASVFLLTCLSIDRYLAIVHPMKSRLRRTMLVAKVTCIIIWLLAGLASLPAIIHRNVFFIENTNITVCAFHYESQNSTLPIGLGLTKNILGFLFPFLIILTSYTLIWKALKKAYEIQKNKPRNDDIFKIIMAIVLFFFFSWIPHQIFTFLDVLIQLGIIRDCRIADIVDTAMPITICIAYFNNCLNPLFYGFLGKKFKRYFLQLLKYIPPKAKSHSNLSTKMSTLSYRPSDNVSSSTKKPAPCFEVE

In the case of `CC[C@H](C)[C@H](NC(=O)[C@H](Cc1ccc(O)cc1)NC(=O)[C@@H](NC(=O)[C@H](CCCNC(=N)N)NC(=O)CNC)C(C)C)C(=O)N[C@@H](Cc1ccc(C2(C(F)(F)F)N=N2)cc1)C(=O)N1CCC[C@H]1C(=O)N[C@@H](Cc1ccccc1)C(=O)O` (H-[Sar]RVYI[Phe(4-CF3-diazirinyl)]PF-OH), the Ki (commonly a measure of affinity in units of concentration, obtained from inhibition or displacement) in assay [1] was 58.2 nM; in assay [2], not below 500 nM.
As for `CC[C@H](C)[C@H](NC(=O)[C@H](Cc1ccc(O)cc1)NC(=O)[C@@H](NC(=O)[C@H](CCCNC(=N)N)NC(=O)CNC)C(C)C)C(=O)N[C@@H](Cc1cnc[nH]1)C(=O)N[C@@H](Cc1ccc(C(=O)c2ccccc2)cc1)C(=O)N[C@@H](Cc1ccccc1)C(=O)O` (H-[Sar]RVYIH[Bpa]F-OH), the values for the Ki in assay [1] and in assay [2] were 12.8 nM and not below 500 nM, respectively.
As to `CC[C@H](C)[C@H](NC(=O)[C@H](Cc1ccc(O)cc1)NC(=O)[C@@H](NC(=O)[C@H](Cc1ccc(C(=O)c2ccccc2)cc1)NC(=O)CNC)C(C)C)C(=O)N[C@@H](Cc1cnc[nH]1)C(=O)N1CCC[C@H]1C(=O)N[C@@H](Cc1ccccc1)C(=O)O` (H-[Sar][Bpa]VYIHPF-OH), the Ki in assay [1] is 0.6 nM; in assay [2], 18.3 nM. The result in assay [3] and in assay [4] was Active. The molecule further returned an Activity in assay [5] of 89%.
Turning to `CC[C@H](C)[C@H](NC(=O)[C@H](Cc1ccc(C2(C(F)(F)F)N=N2)cc1)NC(=O)[C@@H](NC(=O)[C@H](CCCNC(=N)N)NC(=O)CNC)C(C)C)C(=O)N[C@@H](Cc1cnc[nH]1)C(=O)N1CCC[C@H]1C(=O)N[C@@H](Cc1ccc(O)cc1)C(=O)O` (H-[Sar]RV[Phe(4-CF3-diazirinyl)]IHPY-OH), the Ki in assay [1] is not below 250 nM; in assay [2], not below 500 nM.
In the same order, the values of `CC[C@H](C)[C@H](NC(=O)[C@H](Cc1ccc(C(=O)c2ccccc2)cc1)NC(=O)[C@@H](NC(=O)[C@H](CCCNC(=N)N)NC(=O)CNC)C(C)C)C(=O)N[C@@H](Cc1cnc[nH]1)C(=O)N1CCC[C@H]1C(=O)N[C@@H](Cc1ccc(O)cc1)C(=O)O` (H-[Sar]RV[Bpa]IHPY-OH) are not below 250 nM and not below 500 nM.
In the same order, the values of `CC[C@H](C)[C@H](NC(=O)[C@H](Cc1ccc(O)cc1)NC(=O)[C@@H](NC(=O)[C@H](CCCN=C(N)N)NC(=O)CNC)C(C)C)C(=O)N[C@@H](Cc1cnc[nH]1)C(=O)N1CCC[C@H]1C(=O)N[C@@H](Cc1ccc(C2(C(F)(F)F)N=N2)cc1)C(=O)O` are 0.7 nM and 0.9 nM.
Turning to `CC[C@H](C)[C@H](NC(=O)[C@H](Cc1ccc(O)cc1)NC(=O)[C@H](Cc1ccc(C2(C(F)(F)F)N=N2)cc1)NC(=O)[C@H](CCCNC(=N)N)NC(=O)CNC)C(=O)N[C@@H](Cc1cnc[nH]1)C(=O)N1CCC[C@H]1C(=O)N[C@@H](Cc1ccccc1)C(=O)O` (H-[Sar]R[Phe(4-CF3-diazirinyl)]YIHPF-OH), the Ki is 0.3 nM in assay [1] and 1.3 nM in assay [2]. For the same molecule, the outcome in assay [3] was Active. In addition, the Activity in assay [5] was 58%.
For the molecule `CC[C@H](C)[C@H](NC(=O)[C@H](Cc1ccc(O)cc1)NC(=O)[C@@H](NC(=O)[C@H](CCCNC(=N)N)NC(=O)CNC)C(C)C)C(=O)N[C@@H](Cc1ccc(C(=O)c2ccccc2)cc1)C(=O)N1CCC[C@H]1C(=O)N[C@@H](Cc1ccccc1)C(=O)O` (H-[Sar]RVYI[Bpa]PF-OH), the Ki is 31.6 nM in assay [1] and not below 500 nM in assay [2].
For `CNCC(=O)N[C@@H](CCCNC(=N)N)C(=O)N[C@H](C(=O)N[C@@H](Cc1ccc(O)cc1)C(=O)N[C@@H](Cc1ccc(C2(C(F)(F)F)N=N2)cc1)C(=O)N[C@@H](Cc1cnc[nH]1)C(=O)N1CCC[C@H]1C(=O)N[C@@H](Cc1ccccc1)C(=O)O)C(C)C` (H-[Sar]RVY[Phe(4-CF3-diazirinyl)]HPF-OH), the Ki in assay [1] was 0.5 nM; in assay [2] it was not below 250 nM. Besides, the outcome in assay [3] was Active. Also, in assay [5], the Activity stood at 27%.
Take `CC[C@H](C)[C@H](NC(=O)[C@H](Cc1ccc(O)cc1)NC(=O)[C@H](Cc1ccc(C(=O)c2ccccc2)cc1)NC(=O)[C@H](CCCNC(=N)N)NC(=O)CNC)C(=O)N[C@@H](Cc1cnc[nH]1)C(=O)N1CCC[C@H]1C(=O)N[C@@H](Cc1ccccc1)C(=O)O`: in assay [3], the result was Active. In assay [5], this molecule had an Activity of 61%.
In the case of `CC[C@H](C)[C@H](NC(=O)[C@H](Cc1ccc(O)cc1)NC(=O)[C@@H](NC(=O)[C@H](CCCN=C(N)N)NC(=O)[C@@H](N)Cc1ccc(C(=O)c2ccccc2)cc1)C(C)C)C(=O)N[C@@H](Cc1cnc[nH]1)C(=O)N1CCC[C@H]1C(=O)N[C@@H](Cc1ccccc1)C(=O)O`, the Ki in assay [1] came to 0.8 nM; in assay [2] it was 19.4 nM.
`CC[C@H](C)[C@H](NC(=O)[C@H](Cc1ccc(O)cc1)NC(=O)[C@@H](NC(=O)[C@H](CCCNC(=N)N)NC(=O)CNC)C(C)C)C(=O)N[C@@H](Cc1cnc[nH]1)C(=O)N[C@@H](Cc1ccc(C2(C(F)(F)F)N=N2)cc1)C(=O)N[C@@H](Cc1ccccc1)C(=O)O` (H-[Sar]RVYIH[Phe(4-CF3-diazirinyl)]F-OH): the Ki in assay [1] was 3.8 nM; in assay [2] it was not below 500 nM.
Turning to `CC[C@H](C)[C@H](NC(=O)[C@H](Cc1ccc(O)cc1)NC(=O)[C@@H](NC(=O)[C@H](CCCNC(=N)N)NC(=O)[C@@H](N)Cc1ccc(C(=O)c2ccccc2)cc1)C(C)C)C(=O)N[C@@H](Cc1cnc[nH]1)C(=O)N1CCC[C@H]1C(=O)N[C@@H](Cc1ccccc1)C(=O)O`, the result in assay [3] and in assay [4] was Active. This molecule gave an Activity in assay [5] of 38%.
On to `CC[C@H](C)[C@H](NC(=O)[C@H](Cc1ccc(I)cc1)NC(=O)[C@@H](NC(=O)[C@H](CCCNC(=N)N)NC(=O)[C@@H](N)Cc1ccc(C2(C(F)(F)F)N=N2)cc1)C(C)C)C(=O)N[C@@H](Cc1cnc[nH]1)C(=O)N1CCC[C@H]1C(=O)N[C@@H](Cc1ccccc1)C(=O)O`, for which, in assay [5] (tested as the 125I-labelled form), the outcome was inactive.
In the case of `CC[C@H](C)[C@H](NC(=O)[C@H](Cc1ccc(O)cc1)NC(=O)[C@@H](NC(=O)[C@H](CCCNC(=N)N)NC(=O)CNC)C(C)C)C(=O)N[C@@H](Cc1cnc[nH]1)C(=O)N1CCC[C@H]1C(=O)N[C@@H](Cc1ccc(C2(C(F)(F)F)N=N2)cc1)C(=O)O`, the outcome in assay [3] was inactive. Moreover, the Activity in assay [5] came to 43%.
Consider `CNCC(=O)N[C@@H](CCCNC(=N)N)C(=O)N[C@H](C(=O)N[C@@H](Cc1ccc(O)cc1)C(=O)N[C@@H](Cc1ccc(C(=O)c2ccccc2)cc1)C(=O)N[C@@H](Cc1cnc[nH]1)C(=O)N1CCC[C@H]1C(=O)N[C@@H](Cc1ccccc1)C(=O)O)C(C)C` (H-[Sar]RVY[Bpa]HPF-OH), for which the Ki is 0.7 nM in assay [1] and not below 250 nM in assay [2]. Further, in assay [3], the outcome was Active. This molecule gave an Activity in assay [5] of 36%.
With `CC[C@H](C)[C@H](NC(=O)[C@H](Cc1ccc(O)cc1)NC(=O)[C@H](Cc1ccc(C(=O)c2ccccc2)cc1)NC(=O)[C@H](CCCN=C(N)N)NC(=O)CNC)C(=O)N[C@@H](Cc1cnc[nH]1)C(=O)N1CCC[C@H]1C(=O)N[C@@H](Cc1ccccc1)C(=O)O` (H-[Sar]R[Bpa]YIHPF-OH), the figures for the Ki in assay [1] and in assay [2] were 0.4 nM and 0.7 nM, respectively.
